In assay [1] the test system is CHO cells transfected with pHRL CMV (Renilla luciferase). The experiment in a line: Live cell assay, signal to background ratio. In kind it is cell-based, Chinese hamster. The conditions noted are these: for Change of luminescence from cell samples after Tergitol NP-9 was added: TERGITOL NP-9 final concentration 1%. From the text:
In these examples, the behavior of luminophores and protected luminophores were examined in situ in a variety of cultured cells. Cells were transiently or stably transfected with a plasmid encoding Renilla luciferase. Luminescence was compared between cells contacted with a coelenterazine (VI or VII) or a protected luminophore (IX, XV, or XVI).
Chinese hamster ovary (CHO) cells were maintained in Ham's F-12 media supplemented with 10% fetal bovine serum (FBS). HeLa and 293 cells were maintained in DMEM media supplemented with 10% fetal calf serum (FCS). All cell lines were grown at 37° C. in the presence of 5% CO2. Cells were transiently transfected with either 15 μg pUC19 or pRL-Control plasmid (PROMEGA CORPORATION, E6271 ) at a concentration of 7.5×10^5 cells per 10 cm plate using Tfx-20 (PROMEGA CORP., E2391) or TransFast™ Transfection Reagent (PROMEGA CORP., E2431). The following day, transfections were pooled and split into 48 wells of a white DYNEX 96-well luminometer plate.
The cells thus prepared were then subjected to a variety of assays. Reaction buffers for these assays were prepared using either DMEM or F12 media with FBS or FCS (10% by volume). Coelenterazine VI, coelenterazine VII or one of protected luminophores IX, XV, or XVI was then added to yield a concentration of 60 μM. These buffers were then used for luminescence measurements in the following assays. Luminescence was measured using an ORION luminometer.
Media was aspirated from the cells after 24 or 48 hours following transfection. The cells were washed with 100 μl per well of 1× phosphate buffered saline. Reaction buffer containing either VI or IX was titrated into complete media by half-logs, and these solutions were added to empty wells and to wells containing transfected cells. Luminescence was measured 5 minutes after media replacement. Immediately following the initial measurement, TERGITOL NP-9 (SIGMA CHEMICALS) was added to a final concentration of 1%. Samples were mixed for approximately 15 seconds, and luminescence was integrated over 1 second per well. The luminescence measured from cell samples increased after Tergitol NP-9 was added to samples containing coelenterazine VI or VII.
Autoluminescence was taken as the luminescence measured for samples containing medium and serum alone. The luminescence divided by the autoluminescence was taken as the signal to background ratio (S/B).

For assay [2], the system named is CHO hRL25 cells (which express luciferase). The experiment in a line: Localization of luminescence, cells expressing luciferase. In kind it is cell-based, Chinese hamster. Conditions: 100 μM substrate; for RL (RLU): after addition of purified Renilla luciferase; for Subs (RLU): before exogenous luciferase. How it is done: (§1) CHO hRL25 cells (which express luciferase) (4.5 mL of (7.5×10^5 cells)/(plate/5×10^9 cells/mL) were resuspended in 5.5 mL media and put into 96 well plates. The next day, the cells were aspirated, washed with 100 μL PBS, and then aspirated again. 100 μL of media (F12) containing no substrate (background) was then added to wells containing no cells. These wells were then read for 1 sec/well with an ORION Luminometer (BERTHHOLD) (Table E; Bkg).
(§2) Similarly, 100 μL portions of media containing 100 μM of either POM-h or coelenterazine-h were placed in wells containing cells or wells alone. These wells were then read for 1 sec/well with an ORION Luminometer (BERTHHOLD) immediately following (coelenterazine) and 10 minutes post-addition (POM-h) (Table E; Subs).
(§3) Thereafter, 0.5 μL of purified Renilla luciferase (3.96×10^−5 M/Reaction (Chemicon) was added to each well. All wells were then read for 1 second/well (Table E; RL).
(§4) Similarly, 100 μL portions of media (F12) containing 100 μM of either coelenterazine or triacetyl coelenterazine were placed in wells containing cells or wells alone. These wells were then read for 1 sec/well with an ORION Luminometer (BERTHHOLD) immediately following (coelenterazine) and 4 minutes post-addition (triacetyl coelenterazine) (Table F; Subs).
(§5) Thereafter, 0.5 μL of purified Renilla luciferase (3.96×10^−5 M/Reaction (Chemicon) was added to each well. All wells were then read for 1 second/well (Table F; RL).

For assay [3], the system named is Untransfected CHO (which do not naturally produce luciferase). The experiment in a line: Localization of luminescence, untransfected cells. Type of assay: cell-based, Chinese hamster. The conditions noted are these: Table F, 100 μM substrate; for RL (RLU): after addition of purified Renilla luciferase; for Subs (RLU): before exogenous luciferase. How it is done:
as §4, §5

Another assay deals with T1, Renilla luciferase (Renilla reniformis, UniProt P27652).
T1 construct: purchased Chemicon Corp
T1 sequence (P27652 1-311): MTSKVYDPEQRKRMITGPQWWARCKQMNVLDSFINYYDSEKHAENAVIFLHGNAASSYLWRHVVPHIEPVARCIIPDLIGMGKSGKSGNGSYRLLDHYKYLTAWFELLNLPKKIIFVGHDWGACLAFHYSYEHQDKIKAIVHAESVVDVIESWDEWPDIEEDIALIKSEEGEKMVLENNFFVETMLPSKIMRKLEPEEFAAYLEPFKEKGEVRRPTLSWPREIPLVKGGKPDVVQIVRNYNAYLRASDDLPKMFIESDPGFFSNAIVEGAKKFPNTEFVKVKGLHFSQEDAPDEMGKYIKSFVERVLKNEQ
Description: Localization of luminescence, media only wells with and without purified Renilla luciferase. Type of assay: biochemical. Conditions: Table E, no cells, 100 μM substrate. How it is done: as §1, §2, §3

The mark [4] stands for this setting: Table F, hRL2 cells, read immediately (coelenterazine) or 4 minutes post-addition (triacetyl coelenterazine).

For `CC(=O)Oc1ccc(Cc2nc3c(Cc4ccccc4)nc(-c4ccc(OC(C)=O)cc4)cn3c2OC(C)=O)cc1` [compound IX, triacetyl-coelenterazine], the “Change of luminescence from cell samples after Tergitol NP-9 was added” value (“Change of luminescence from cell samples” below) in assay [1] is listed as “dropped almost to the level of autoluminescence”. Also, the “Ratios - compound/reference Luminesc.” value in assay [1] (reference compound VI, CHO cells transfected with pHRL CMV, 5 minutes after media replacement) is reported as 1.5. The “Ratios - compound/reference S/N” value in assay [1] (reference compound VI, luminescence divided by autoluminescence) is reported as 9.1. The “Ratios - compound/reference Autolum.” value in assay [1] (reference compound VI, medium and serum alone) was 0.2. Moreover, the “RL (RLU)” value amounted to 229111 RLU in assay [2] (Table F, hRL2 cells) and 8910 RLU in assay [3]. Besides, the “Subs (RLU)” value in assay [2] (setting [4]) amounted to 224353 RLU; in assay [3] it was 864 RLU.
Take `O=c1c(Cc2ccccc2)nc2c(Cc3ccccc3)[nH]c(-c3ccc(O)cc3)cn1-2` [compound VII, coelenterazine-h, reference compound]: in assay [1], the “Change of luminescence from cell samples” value is on record as “increased”. The “RL (RLU)” value in assay [2] (Table E, hRL25 cells) is on record as 331381 RLU; at Renilla luciferase (after addition of purified Renilla luciferase), 278467 RLU. The “Subs (RLU)” value in assay [2] (Table E, hRL25 cells, read immediately (coelenterazine-h) or 10 minutes post-addition (POM-h)) is listed as 39342 RLU; at Renilla luciferase (before luciferase), 763 RLU.
As for “coelenterazine [compound VI, reference compound]”, the “Change of luminescence from cell samples” value in assay [1] is “increased”. Also, the “RL (RLU)” value in assay [2] (Table F, hRL2 cells) was determined as 110008374 RLU; in assay [3], 11930147 RLU. The entries for the “Subs (RLU)” value in assay [2] (setting [4]) and in assay [3] were 139842 RLU and 6253 RLU, respectively.

The values above are taken from patent US7537912B2, “Methods of measuring luminogenic activity with a protected coelenterazine” (Promega Corporation, priority 2001, dated 2009).
